pEC50: −log10 of the molar value.
What was measured:
Huh-7 [1] = experiment: Cytotoxicity using HCV replicon assay; assay type: functional; details: Homo sapiens
Huh-7 [2] = experiment: Compound was tested for its ability to inhibit hepatitis C viral RNA replication in Huh-7 cells (human hepatoma cells); assay type: functional, cell-based

| SMILES | pEC50 (Huh-7 [2]) | CC50 (Huh-7 [1]) |
| --- | --- | --- |
| C[C@@]1(O)[C@H](O)[C@@H](CO)O[C@H]1n1cc2c3c(ncnc31)N(CCO)N=C2N | 3.70 | > 300 µM |
| CCCN1N=C(N)c2cn([C@@H]3O[C@H](CO)[C@@H](O)[C@@]3(C)O)c3ncnc1c23 | 4.00 | > 300 µM |
| CC(=O)NC1=NN(CCO)c2ncnc3c2c1cn3[C@@H]1O[C@H](CO)[C@@H](O)[C@@]1(C)O | 4.00 | 200 µM |
| NC1=NN(CCO)c2ncnc3c2c1cn3[C@@H]1O[C@H](CO)[C@@H](O)[C@H]1O | 4.70 | > 300 µM |
| CC(=O)NC1=NN(C)c2ncnc3c2c1cn3[C@@H]1O[C@H](CO)[C@@H](O)[C@@]1(C)O | 3.82 | 300 µM |
| CCCCN1N=C(N)c2cn([C@@H]3O[C@H](CO)[C@@H](O)[C@@]3(C)O)c3ncnc1c23 | 4.00 | > 300 µM |
| NC1=NN(Cc2ccccc2)c2ncnc3c2c1cn3[C@@H]1O[C@H](CO)[C@@H](O)[C@H]1O | 3.90 | > 300 µM |

Stronger by pEC50 (Huh-7 [2]), values ahead:

| pEC50 (Huh-7 [2]) | SMILES | CC50 (Huh-7 [1]) |
| --- | --- | --- |
| 4.74 | CN1N=C(N)c2cn([C@@H]3O[C@H](CO)[C@@H](O)[C@@]3(C)O)c3ncnc1c23 | > 300 µM |
| 4.82 | CCN1N=C(N)c2cn([C@@H]3O[C@H](CO)[C@@H](O)[C@@]3(C)O)c3ncnc1c23 | > 200 µM |
| 6.00 | CCN1N=C(N)c2cn([C@@H]3O[C@H](CO)[C@@H](O)[C@H]3O)c3ncnc1c23 | 150 µM |

Source: ChEMBL document CHEMBL1147474, “Synthesis of new 2'-beta-C-methyl related triciribine analogues as anti-HCV agents” (Bioorg Med Chem Lett, 2004)
